# Measured values: ChEMBL document CHEMBL3885881, “DrugMatrix”
# Species: Rattus norvegicus
# Assay: DrugMatrix - Regimen: Daily Repeat
# Type: toxicity, organism-based, Sprague-Dawley
# Parameters: regimen Daily Repeat, gender Male, age 6-8 weeks
# Settings: in vivo, sc, […], route subcutaneous, dose 2.5 mg/Kg, dose level High; for ABSOLUTE BASOPHIL / ABSOLUTE EOSINOPHIL / ABSOLUTE LYMPHOCYTE / ABSOLUTE MONOCYTE / ABSOLUTE SEGMENTED NEUTROPHIL / BASOPHIL / EOSINOPHIL / ERYTHROCYTE COUNT / HEMATOCRIT / HEMOGLOBIN / LEUKOCYTE COUNT / LYMPHOCYTE / MEAN CORPUSCULAR HEMOGLOBIN / MEAN CORPUSCULAR HEMOGLOBIN CONCENTRATION / MEAN CORPUSCULAR VOLUME / MONOCYTE / NEUTROPHIL / NUCLEATED RED BLOOD CELLS / PLATELET COUNT: tissue Blood; for ALANINE AMINOTRANSFERASE / ALBUMIN / ALKALINE PHOSPHATASE / ASPARTATE AMINOTRANSFERASE / BLOOD UREA NITROGEN / CARBON DIOXIDE / CHLORIDE / CHOLESTEROL / CREATINE PHOSPHOKINASE / CREATININE / GLUCOSE / LACTATE DEHYDROGENASE / LIPASE / PHOSPHORUS / POTASSIUM / SODIUM / TOTAL BILIRUBIN / TOTAL PROTEIN / URIC ACID: tissue Plasma
smiles,measurement,setting,value
CC1(C)O[C@@H]2C[C@H]3[C@@H]4C[C@H](F)C5=CC(=O)C=C[C@]5(C)[C@@]4(F)[C@@H](O)C[C@]3(C)[C@]2(C(=O)CO)O1 [FLUOCINOLONE ACETONIDE],ABSOLUTE BASOPHIL,"72 h, time 3 day",0 CELLS/uL
same,ABSOLUTE EOSINOPHIL,"72 h, time 3 day",0 CELLS/uL
same,ABSOLUTE LYMPHOCYTE,"72 h, time 3 day",365.67 CELLS/uL
same,ABSOLUTE MONOCYTE,"72 h, time 3 day",12.67 CELLS/uL
same,ABSOLUTE SEGMENTED NEUTROPHIL,"72 h, time 3 day",5188.33 CELLS/uL
same,BASOPHIL,"72 h, time 3 day",0%
same,EOSINOPHIL,"72 h, time 3 day",0%
same,ERYTHROCYTE COUNT,"72 h, time 3 day",4.97 x10E6/uL
same,HEMATOCRIT,"72 h, time 3 day",32.1%
same,HEMOGLOBIN,"72 h, time 3 day",11.87 G/DL
same,LEUKOCYTE COUNT,"72 h, time 3 day",5.57 x10E3/uL
same,LYMPHOCYTE,"72 h, time 3 day",6.67%
same,MEAN CORPUSCULAR HEMOGLOBIN,"72 h, time 3 day",24.1 pg
same,MEAN CORPUSCULAR HEMOGLOBIN CONCENTRATION,"72 h, time 3 day",37.03 G/DL
same,MEAN CORPUSCULAR VOLUME,"72 h, time 3 day",64.97 fL
same,MONOCYTE,"72 h, time 3 day",0.33%
same,NEUTROPHIL,"72 h, time 3 day",93%
same,NUCLEATED RED BLOOD CELLS,"72 h, time 3 day",0.67 /100WBC
same,PLATELET COUNT,"72 h, time 3 day",1062 x10E3/uL
same,ALANINE AMINOTRANSFERASE,"72 h, time 3 day",159.67 u/L
same,ALBUMIN,"72 h, time 3 day",4.33 G/DL
same,ALKALINE PHOSPHATASE,"72 h, time 3 day",320.67 u/L
same,ASPARTATE AMINOTRANSFERASE,"72 h, time 3 day",309.33 u/L
same,BLOOD UREA NITROGEN,"72 h, time 3 day",24.33 mg/dL
same,CARBON DIOXIDE,"72 h, time 3 day",26 mmol/L
same,CHLORIDE,"72 h, time 3 day",97 MEQ/L
same,CHOLESTEROL,"72 h, time 3 day",133 mg/dL
same,CREATINE PHOSPHOKINASE,"72 h, time 3 day",322 u/L
same,CREATININE,"72 h, time 3 day",0.18 mg/dL
same,GLUCOSE,"72 h, time 3 day",463 mg/dL
same,LACTATE DEHYDROGENASE,"72 h, time 3 day",822 u/L
same,LIPASE,"72 h, time 3 day",9.67 u/L
same,PHOSPHORUS,"72 h, time 3 day",10.6 mg/dL
same,POTASSIUM,"72 h, time 3 day",4.57 MEQ/L
same,SODIUM,"72 h, time 3 day",142.47 MEQ/L
same,TOTAL BILIRUBIN,"72 h, time 3 day",0.27 mg/dL
same,TOTAL PROTEIN,"72 h, time 3 day",5.4 G/DL
same,URIC ACID,"72 h, time 3 day",1.03 mg/dL
same,ABSOLUTE BASOPHIL,"120 h, time 5 day",0 CELLS/uL
same,ABSOLUTE EOSINOPHIL,"120 h, time 5 day",0 CELLS/uL
same,ABSOLUTE LYMPHOCYTE,"120 h, time 5 day",450 CELLS/uL
same,ABSOLUTE MONOCYTE,"120 h, time 5 day",219.33 CELLS/uL
same,ABSOLUTE SEGMENTED NEUTROPHIL,"120 h, time 5 day",11864 CELLS/uL
same,BASOPHIL,"120 h, time 5 day",0%
same,EOSINOPHIL,"120 h, time 5 day",0%
same,ERYTHROCYTE COUNT,"120 h, time 5 day",5.21 x10E6/uL
same,HEMATOCRIT,"120 h, time 5 day",33.17%
same,HEMOGLOBIN,"120 h, time 5 day",12.2 G/DL
same,LEUKOCYTE COUNT,"120 h, time 5 day",12.53 x10E3/uL
same,LYMPHOCYTE,"120 h, time 5 day",3.67%
same,MEAN CORPUSCULAR HEMOGLOBIN,"120 h, time 5 day",23.37 pg
same,MEAN CORPUSCULAR HEMOGLOBIN CONCENTRATION,"120 h, time 5 day",36.87 G/DL
same,MEAN CORPUSCULAR VOLUME,"120 h, time 5 day",63.37 fL
same,MONOCYTE,"120 h, time 5 day",1.67%
same,NEUTROPHIL,"120 h, time 5 day",94.67%
same,NUCLEATED RED BLOOD CELLS,"120 h, time 5 day",0 /100WBC
same,PLATELET COUNT,"120 h, time 5 day",587.67 x10E3/uL
same,ALANINE AMINOTRANSFERASE,"120 h, time 5 day",194 u/L
same,ALBUMIN,"120 h, time 5 day",3.57 G/DL
same,ALKALINE PHOSPHATASE,"120 h, time 5 day",289.67 u/L
same,ASPARTATE AMINOTRANSFERASE,"120 h, time 5 day",380.33 u/L
same,BLOOD UREA NITROGEN,"120 h, time 5 day",24.33 mg/dL
same,CARBON DIOXIDE,"120 h, time 5 day",17.67 mmol/L
same,CHLORIDE,"120 h, time 5 day",95 MEQ/L
same,CHOLESTEROL,"120 h, time 5 day",90 mg/dL
same,CREATINE PHOSPHOKINASE,"120 h, time 5 day",1694.33 u/L
same,CREATININE,"120 h, time 5 day",0.29 mg/dL
same,GLUCOSE,"120 h, time 5 day",635 mg/dL
same,LACTATE DEHYDROGENASE,"120 h, time 5 day",429 u/L
same,LIPASE,"120 h, time 5 day",10 u/L
same,PHOSPHORUS,"120 h, time 5 day",14.6 mg/dL
same,POTASSIUM,"120 h, time 5 day",6.12 MEQ/L
same,SODIUM,"120 h, time 5 day",139.3 MEQ/L
same,TOTAL BILIRUBIN,"120 h, time 5 day",0.2 mg/dL
same,TOTAL PROTEIN,"120 h, time 5 day",4.67 G/DL
same,URIC ACID,"120 h, time 5 day",3.2 mg/dL
